# Activity calls are given as the source filed them. No cut-off for these calls is given here.
# How the values were obtained:
# [1] = biological target: Serine/threonine-protein kinase TBK1 (Homo sapiens) (UniProt Q9UHD2); experiment: Inhibition of recombinant human N-terminal GST-tagged TBK1 (1 to 729 residues) expressed in baculovirus infected Sf21 cells assessed as remaining activity at 1 uM using KKKKERLLDDRHDSGLDSMKDEE as substrate incubated for 30 mins in presence of [gamma-33P]ATP by filter binding method relative to control
# [2] = biological target: MAP kinase-interacting serine/threonine-protein kinase 1 (Homo sapiens) (UniProt Q9BUB5); experiment: Inhibition of recombinant human N-terminal GST-tagged C-terminal His6-tagged MNK1 (2 to 424 residues) expressed in Escherichia coli assessed as remaining activity at 1 uM using eIF4E as substrate incubated for 30 mins in presence of [gamma-33P]ATP by filter binding method relative to control
# [3] = biological target: Homeodomain-interacting protein kinase 3 (Homo sapiens) (UniProt Q9H422); experiment: Inhibition of recombinant human N-terminal GST-tagged HIPK3 (161 to 562 residues) expressed in Escherichia coli assessed as remaining activity at 1 uM using MBP as substrate incubated for 30 mins in presence of [gamma-33P]ATP by filter binding method relative to control
# [4] = biological target: NUAK family SNF1-like kinase 1 (Homo sapiens) (UniProt O60285); experiment: Inhibition of recombinant human N-terminal His6-tagged NUAK1 (2 to 660 residues) expressed in baculovirus infected Sf21 cells assessed as remaining activity at 1 uM using ALNRTSSDSALHRRR as substrate incubated for 30 mins in presence of [gamma-33P]ATP by filter binding method relative to control
# [5] = biological target: SRSF protein kinase 1 (Homo sapiens) (UniProt Q96SB4); experiment: Inhibition of recombinant human N-terminal GST-tagged SRPK1 (2 to 654 residues) expressed in Escherichia coli assessed as remaining activity at 1 uM using RSRSRSRSRSRSRSR as substrate incubated for 30 mins in presence of [gamma-33P]ATP by filter binding method relative to control
# [6] = biological target: Tyrosine-protein kinase BTK (Homo sapiens) (UniProt Q06187); experiment: Inhibition of recombinant human N-terminal His6-tagged BTK (2 to 659 residues) expressed in baculovirus infected Sf21 cells assessed as remaining activity at 1 uM using KVEKIGEGTYGVVYK as substrate incubated for 30 mins in presence of [gamma-33P]ATP by filter binding method relative to control
# [7] = biological target: Serine/threonine-protein kinase 26 (Homo sapiens) (UniProt Q9P289); experiment: Inhibition of recombinant human N-terminal His6-tagged MST4 (1 to 416 residues) expressed in baculovirus infected Sf21 cells assessed as remaining activity at 1 uM using MBP as substrate incubated for 30 mins in presence of [gamma-33P]ATP by filter binding method relative to control
# [8] = biological target: Macrophage-stimulating protein receptor (Homo sapiens) (UniProt Q04912); experiment: Inhibition of human RON at 1 uM using polyEY as substrate in presence of 33P-ATP by ProQinase assay
# [9] = biological target: Ephrin type-A receptor 8 (Homo sapiens) (UniProt P29322); experiment: Inhibition of human EPHA8 at 1 uM using polyEy as substrate in presence of 33P-ATP by ProQinase assay
# [10] = biological target: cGMP-dependent protein kinase 1 (Homo sapiens) (UniProt Q13976); experiment: Inhibition of human PRKG1 at 1 uM using 3xChocktide-PKC as substrate in presence of 33P-ATP by ProQinase assay
# [11] = biological target: Tyrosine-protein kinase SYK (Homo sapiens) (UniProt P43405); experiment: Inhibition of human SYK (1 to 635 residues) at 1 uM using polyEY as substrate in presence of 33P-ATP by ProQinase assay
# [12] = biological target: Calcium/calmodulin-dependent protein kinase type IV (Homo sapiens) (UniProt Q16566); experiment: Inhibition of human CAMK4 at 1 uM using JUN as substrate in presence of 33P-ATP by ProQinase assay
# [13] = biological target: Protein kinase C iota type (Homo sapiens) (UniProt P41743); experiment: Inhibition of human PKCiota at 1 uM using 3xChocktide-PKC as substrate in presence of 33P-ATP by ProQinase assay
# [14] = biological target: Cyclin-Y/Cyclin-dependent kinase 16 (Homo sapiens) (UniProt Q00536+Q8ND76); experiment: Inhibition of human PCTAIRE1/CyclinY at 1 uM using RBER-GSK3 as substrate in presence of 33P-ATP by ProQinase assay; type: protein-complex assay
# [15] = biological target: Beta-adrenergic receptor kinase 1 (Homo sapiens) (UniProt P25098); experiment: Inhibition of human GRK2 at 1 uM using casein as substrate in presence of 33P-ATP by ProQinase assay
# [16] = biological target: Non-receptor tyrosine-protein kinase TYK2 (Homo sapiens) (UniProt P29597); experiment: Inhibition of human TYK2 at 1 uM using poly(Ala,Glu,Lys,Tyr) as substrate in presence of 33P-ATP by ProQinase assay
# [17] = biological target: Serine/threonine-protein kinase B-raf (Homo sapiens) (UniProt P15056); experiment: Inhibition of human BRAF at 1 uM using MEK1-K97M as substrate in presence of 33P-ATP by ProQinase assay
# [18] = biological target: CDK8/Cyclin C (Homo sapiens) (UniProt P49336+P24863); experiment: Inhibition of human CDK8/CyclinC at 1 uM using RBER-CHKtide as substrate in presence of 33P-ATP by ProQinase assay; type: protein-complex assay
# [19] = biological target: Serine/threonine-protein kinase WNK1 (Homo sapiens) (UniProt Q9H4A3); experiment: Inhibition of human WNK1 at 1 uM using 3xChocktide-PKC as substrate in presence of 33P-ATP by ProQinase assay
# [20] = biological target: MAP kinase-interacting serine/threonine-protein kinase 2 (Homo sapiens) (UniProt Q9HBH9); experiment: Inhibition of human MKNK2 at 1 uM using RB-S6P as substrate in presence of 33P-ATP by ProQinase assay
# [21] = biological target: G protein-coupled receptor kinase 3 (Homo sapiens) (UniProt P35626); experiment: Inhibition of human GRK3 at 1 uM using casein as substrate in presence of 33P-ATP by ProQinase assay
# [22] = biological target: cAMP-dependent protein kinase catalytic subunit PRKX (Homo sapiens) (UniProt P51817); experiment: Inhibition of human PRKX at 1 uM using RBER-GSK3 as substrate in presence of 33P-ATP by ProQinase assay
# [23] = biological target: Dual specificity mitogen-activated protein kinase kinase 1 (Homo sapiens) (UniProt Q02750); experiment: Inhibition of human MEK1 at 1 uM using ERK2-KR as substrate in presence of 33P-ATP by ProQinase assay
# [24] = biological target: Phosphatidylinositol 4-kinase beta (Homo sapiens, UniProt Q9UBF8); experiment: Inhibition of human PI4KB using PI as substrate by ADP-Glo assay
# [25] = biological target: Phosphatidylinositol 3-kinase C2 domain-containing subunit gamma (Homo sapiens, UniProt O75747); experiment: Inhibition of human PIK3C2G using PIP2/PS as substrate by ADP-Glo assay
# [26] = biological target: Phosphatidylinositol 4-kinase type 2-beta (Homo sapiens, UniProt Q8TCG2); experiment: Inhibition of human PI4K2B using PI/PS as substrate by ADP-Glo assay
# Non-receptor tyrosine-protein kinase TYK2 (Homo sapiens), sequence (P29597 whole entry): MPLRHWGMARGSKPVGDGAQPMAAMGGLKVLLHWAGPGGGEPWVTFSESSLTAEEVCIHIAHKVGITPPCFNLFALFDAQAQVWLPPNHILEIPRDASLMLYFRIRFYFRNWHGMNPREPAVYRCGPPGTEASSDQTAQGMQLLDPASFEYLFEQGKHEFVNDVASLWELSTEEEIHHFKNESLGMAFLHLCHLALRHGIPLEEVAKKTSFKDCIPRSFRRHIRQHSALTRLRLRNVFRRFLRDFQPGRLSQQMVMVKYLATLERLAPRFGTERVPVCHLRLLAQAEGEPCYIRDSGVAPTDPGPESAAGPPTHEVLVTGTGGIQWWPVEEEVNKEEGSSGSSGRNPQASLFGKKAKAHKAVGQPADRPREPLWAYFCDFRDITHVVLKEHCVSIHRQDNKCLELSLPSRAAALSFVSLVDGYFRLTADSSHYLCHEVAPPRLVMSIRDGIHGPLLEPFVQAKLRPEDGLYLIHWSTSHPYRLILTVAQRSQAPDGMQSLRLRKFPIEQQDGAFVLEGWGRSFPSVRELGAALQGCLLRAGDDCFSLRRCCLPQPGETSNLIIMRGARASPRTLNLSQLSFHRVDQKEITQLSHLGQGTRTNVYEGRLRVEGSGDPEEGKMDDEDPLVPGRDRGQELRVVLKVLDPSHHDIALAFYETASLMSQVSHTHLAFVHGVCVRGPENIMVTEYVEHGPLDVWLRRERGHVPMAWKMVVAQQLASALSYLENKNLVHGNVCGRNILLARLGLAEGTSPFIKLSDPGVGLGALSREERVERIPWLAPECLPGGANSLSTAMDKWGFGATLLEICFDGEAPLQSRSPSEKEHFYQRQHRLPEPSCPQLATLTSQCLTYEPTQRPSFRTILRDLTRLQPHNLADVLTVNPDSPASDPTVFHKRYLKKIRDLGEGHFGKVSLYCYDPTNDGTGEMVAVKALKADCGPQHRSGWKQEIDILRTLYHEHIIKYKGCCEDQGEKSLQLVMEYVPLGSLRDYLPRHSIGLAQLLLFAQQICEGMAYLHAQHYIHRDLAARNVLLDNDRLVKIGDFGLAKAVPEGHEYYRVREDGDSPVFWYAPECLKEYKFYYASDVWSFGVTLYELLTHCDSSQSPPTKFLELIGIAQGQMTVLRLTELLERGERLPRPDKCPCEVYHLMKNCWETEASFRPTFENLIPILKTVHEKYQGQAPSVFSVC
# Serine/threonine-protein kinase WNK1 (Homo sapiens), sequence (Q9H4A3 whole entry, looked up): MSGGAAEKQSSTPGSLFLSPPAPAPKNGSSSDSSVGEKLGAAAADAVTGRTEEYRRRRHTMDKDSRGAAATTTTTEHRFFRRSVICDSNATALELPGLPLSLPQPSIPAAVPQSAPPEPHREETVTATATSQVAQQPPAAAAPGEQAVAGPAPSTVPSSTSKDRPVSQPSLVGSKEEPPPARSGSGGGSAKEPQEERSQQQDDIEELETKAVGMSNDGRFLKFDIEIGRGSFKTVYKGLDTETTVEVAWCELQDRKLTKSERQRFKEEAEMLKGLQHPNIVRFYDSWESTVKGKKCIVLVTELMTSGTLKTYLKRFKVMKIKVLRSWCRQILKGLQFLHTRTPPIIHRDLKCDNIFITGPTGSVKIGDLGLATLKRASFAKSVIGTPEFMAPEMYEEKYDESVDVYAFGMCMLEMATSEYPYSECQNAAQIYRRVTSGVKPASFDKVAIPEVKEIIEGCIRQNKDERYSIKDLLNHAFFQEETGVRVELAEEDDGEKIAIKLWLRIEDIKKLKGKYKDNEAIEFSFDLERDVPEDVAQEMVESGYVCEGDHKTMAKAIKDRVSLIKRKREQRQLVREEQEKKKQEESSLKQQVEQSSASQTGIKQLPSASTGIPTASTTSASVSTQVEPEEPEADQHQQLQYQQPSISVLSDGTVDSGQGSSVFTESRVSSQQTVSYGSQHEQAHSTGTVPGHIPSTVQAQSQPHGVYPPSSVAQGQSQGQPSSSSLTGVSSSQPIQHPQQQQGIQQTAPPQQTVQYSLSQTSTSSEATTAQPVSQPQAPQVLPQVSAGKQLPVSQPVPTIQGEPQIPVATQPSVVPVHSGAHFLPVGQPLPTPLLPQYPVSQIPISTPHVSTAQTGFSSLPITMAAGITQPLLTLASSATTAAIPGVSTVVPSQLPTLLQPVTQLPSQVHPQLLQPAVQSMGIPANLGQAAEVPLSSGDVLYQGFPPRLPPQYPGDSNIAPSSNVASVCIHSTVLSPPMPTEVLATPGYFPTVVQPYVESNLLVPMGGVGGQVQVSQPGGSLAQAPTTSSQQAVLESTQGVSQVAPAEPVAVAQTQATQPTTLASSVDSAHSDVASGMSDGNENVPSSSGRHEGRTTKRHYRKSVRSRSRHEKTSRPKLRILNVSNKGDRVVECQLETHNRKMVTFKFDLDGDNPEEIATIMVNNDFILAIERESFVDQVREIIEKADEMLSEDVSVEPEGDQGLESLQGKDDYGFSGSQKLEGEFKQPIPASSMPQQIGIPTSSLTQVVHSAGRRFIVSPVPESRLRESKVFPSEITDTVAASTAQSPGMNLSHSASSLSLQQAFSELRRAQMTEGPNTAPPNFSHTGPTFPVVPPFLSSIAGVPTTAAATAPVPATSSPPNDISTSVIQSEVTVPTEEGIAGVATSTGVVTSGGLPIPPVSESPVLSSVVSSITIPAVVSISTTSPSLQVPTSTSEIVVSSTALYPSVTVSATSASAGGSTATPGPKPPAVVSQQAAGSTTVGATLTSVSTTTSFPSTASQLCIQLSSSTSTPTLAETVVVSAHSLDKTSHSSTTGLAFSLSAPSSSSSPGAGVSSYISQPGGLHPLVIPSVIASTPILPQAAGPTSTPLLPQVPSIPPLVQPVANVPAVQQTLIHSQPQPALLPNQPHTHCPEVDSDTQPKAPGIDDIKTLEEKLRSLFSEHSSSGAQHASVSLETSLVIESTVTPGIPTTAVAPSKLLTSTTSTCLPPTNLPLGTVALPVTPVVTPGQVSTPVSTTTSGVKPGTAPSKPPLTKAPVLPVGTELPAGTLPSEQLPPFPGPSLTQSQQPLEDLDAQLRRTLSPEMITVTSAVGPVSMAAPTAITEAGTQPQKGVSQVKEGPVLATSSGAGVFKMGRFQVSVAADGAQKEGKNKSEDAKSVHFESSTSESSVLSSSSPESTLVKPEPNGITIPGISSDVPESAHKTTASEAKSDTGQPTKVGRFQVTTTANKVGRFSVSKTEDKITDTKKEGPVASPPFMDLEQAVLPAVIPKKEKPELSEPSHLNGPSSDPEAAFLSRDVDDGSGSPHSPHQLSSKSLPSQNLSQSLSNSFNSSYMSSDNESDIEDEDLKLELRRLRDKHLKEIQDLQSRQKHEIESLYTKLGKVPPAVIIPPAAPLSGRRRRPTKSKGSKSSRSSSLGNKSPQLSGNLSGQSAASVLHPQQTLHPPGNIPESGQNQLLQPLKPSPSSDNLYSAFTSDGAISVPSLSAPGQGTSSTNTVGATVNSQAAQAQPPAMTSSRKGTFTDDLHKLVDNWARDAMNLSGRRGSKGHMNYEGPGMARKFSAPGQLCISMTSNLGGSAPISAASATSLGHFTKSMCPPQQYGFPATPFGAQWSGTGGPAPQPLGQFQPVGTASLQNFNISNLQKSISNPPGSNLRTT
# Serine/threonine-protein kinase 26 (Homo sapiens), sequence (Q9P289 2-416 limits assumed): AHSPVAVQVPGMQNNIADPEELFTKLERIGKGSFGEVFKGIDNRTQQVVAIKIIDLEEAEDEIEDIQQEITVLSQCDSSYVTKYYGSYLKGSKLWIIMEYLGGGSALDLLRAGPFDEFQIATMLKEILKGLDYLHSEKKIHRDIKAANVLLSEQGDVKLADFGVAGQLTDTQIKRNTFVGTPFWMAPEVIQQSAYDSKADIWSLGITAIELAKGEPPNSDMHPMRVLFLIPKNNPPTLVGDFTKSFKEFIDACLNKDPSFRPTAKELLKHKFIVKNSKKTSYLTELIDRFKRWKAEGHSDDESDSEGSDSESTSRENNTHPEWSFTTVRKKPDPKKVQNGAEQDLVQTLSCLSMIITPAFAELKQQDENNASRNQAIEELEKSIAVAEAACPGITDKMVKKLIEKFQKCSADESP
# Phosphatidylinositol 4-kinase beta, sequence (Q9UBF8 whole entry, the tested form may be a part): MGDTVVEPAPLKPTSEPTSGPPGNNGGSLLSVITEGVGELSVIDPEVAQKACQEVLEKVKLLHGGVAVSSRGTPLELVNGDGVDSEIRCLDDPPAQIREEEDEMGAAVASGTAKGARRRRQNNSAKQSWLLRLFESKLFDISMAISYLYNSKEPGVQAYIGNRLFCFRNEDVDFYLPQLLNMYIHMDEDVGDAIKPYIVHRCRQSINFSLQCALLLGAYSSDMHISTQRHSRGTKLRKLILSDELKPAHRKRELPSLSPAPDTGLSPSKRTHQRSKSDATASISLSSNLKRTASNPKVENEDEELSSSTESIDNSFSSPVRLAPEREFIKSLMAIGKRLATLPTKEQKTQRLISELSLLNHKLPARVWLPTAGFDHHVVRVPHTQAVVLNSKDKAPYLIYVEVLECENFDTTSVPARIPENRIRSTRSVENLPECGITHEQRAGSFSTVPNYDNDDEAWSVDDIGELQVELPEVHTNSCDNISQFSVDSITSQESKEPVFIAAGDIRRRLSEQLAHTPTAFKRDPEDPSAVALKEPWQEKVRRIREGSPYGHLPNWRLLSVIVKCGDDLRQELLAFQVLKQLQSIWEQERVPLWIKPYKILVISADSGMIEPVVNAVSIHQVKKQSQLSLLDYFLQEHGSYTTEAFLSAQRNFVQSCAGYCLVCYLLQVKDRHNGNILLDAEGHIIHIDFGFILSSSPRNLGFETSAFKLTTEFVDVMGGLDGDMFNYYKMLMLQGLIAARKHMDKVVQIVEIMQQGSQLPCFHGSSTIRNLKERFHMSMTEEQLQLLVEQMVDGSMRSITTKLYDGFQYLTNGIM
structure (smiles),measurement,setting,value
CC(C)(O)CNc1ncc(-c2ccnc(Nc3ccnc(Cl)c3)n2)c(CC2CC2)n1,Activity,[1],125%
same,Activity,[2],122%
same,Activity,[3],117%
same,Activity,[4],112%
same,Activity,[5],111%
same,Activity,[6],108%
same,Activity,[7],108%
same,inhibition,[8],inactive
same,inhibition,[9],inactive
same,inhibition,[10],inactive
same,inhibition,[11],inactive
same,inhibition,[12],inactive
same,inhibition,[13],inactive
same,inhibition,[14],inactive
same,inhibition,[15],inactive
same,inhibition,[16],inactive
same,inhibition,[17],inactive
same,inhibition,[18],inactive
same,inhibition,[19],inactive
same,inhibition,[20],inactive
same,inhibition,[21],inactive
same,inhibition,[22],inactive
same,inhibition,[23],inactive
same,IC50,[24],> 10 µM
same,IC50,[25],> 10 µM
same,IC50,[26],> 10 µM
